Tests used:
Experiment in all cases: ProQinase radiometric kinase panel
Details in all cases: mean of 2 exp.
Aurora-B = Aurora-B (Homo sapiens, UniProt Q96GD4)
PKC-beta2 = PKC-beta2 (Homo sapiens, UniProt P05771)
PKC-delta = PKC-delta (Homo sapiens, UniProt Q05655)
GRK6 = GRK6 (Homo sapiens, UniProt P43250)
MYLK = MYLK (Homo sapiens, UniProt Q15746)
CDK2/CycE1 = CDK2/CycE1 (Homo sapiens, UniProt P24941)
NEK6 = NEK6 (Homo sapiens, UniProt Q9HC98)
CDK6/CycD1 = CDK6/CycD1 (Homo sapiens, UniProt Q00534)
ACV-R2B = ACV-R2B (Homo sapiens, UniProt Q13705)
AXL = AXL (Homo sapiens, UniProt P30530)
DAPK2 = DAPK2 (Homo sapiens, UniProt Q9UIK4)
CDK8/CycC = CDK8/CycC (Homo sapiens, UniProt P49336)
AKT3 = AKT3 (Homo sapiens, UniProt Q9Y243)
LYN = LYN (Homo sapiens, UniProt P07948)
CAMKK2 = CAMKK2 (Homo sapiens, UniProt Q96RR4)
MARK2 = MARK2 (Homo sapiens, UniProt Q7KZI7)
LRRK2 = LRRK2 (Homo sapiens, UniProt Q5S007)
PHKG1 = PHKG1 (Homo sapiens, UniProt Q16816)
RPS6KA6 = RPS6KA6 (Homo sapiens, UniProt Q9UK32)
SRC = SRC (Homo sapiens, UniProt P12931)
PKC-iota = PKC-iota (Homo sapiens, UniProt P41743)
GSK3-alpha = GSK3-alpha (Homo sapiens, UniProt P49840)
PKC-alpha = PKC-alpha (Homo sapiens, UniProt P17252)
CSF1-R = CSF1-R (Homo sapiens, UniProt P07333)
PKC-nu = PKC-nu (Homo sapiens, UniProt O94806)
MEKK3 = MEKK3 (Homo sapiens, UniProt Q99759)
VRK1 = VRK1 (Homo sapiens, UniProt Q99986)
RON = RON (Homo sapiens, UniProt Q04912)
p38-alpha = p38-alpha (Homo sapiens, UniProt Q16539)
BTK = BTK (Homo sapiens, UniProt Q06187)
NEK1 = NEK1 (Homo sapiens, UniProt Q96PY6)
PRKX = PRKX (Homo sapiens, UniProt P51817)
IRAK1 = IRAK1 (Homo sapiens, UniProt P51617)
FER = FER (Homo sapiens, UniProt P16591)
PDGFR-alpha = PDGFR-alpha (Homo sapiens, UniProt P16234)
TLK2 = TLK2 (Homo sapiens, UniProt Q86UE8)
PAK2 = PAK2 (Homo sapiens, UniProt Q13177)
MERTK = MERTK (Homo sapiens, UniProt Q12866)
MKK6 (S207D/T211D) = MKK6 (S207D/T211D) (Homo sapiens, UniProt P52564, S207D/T211D)

Sequence of PAK2 (Q13177 whole entry): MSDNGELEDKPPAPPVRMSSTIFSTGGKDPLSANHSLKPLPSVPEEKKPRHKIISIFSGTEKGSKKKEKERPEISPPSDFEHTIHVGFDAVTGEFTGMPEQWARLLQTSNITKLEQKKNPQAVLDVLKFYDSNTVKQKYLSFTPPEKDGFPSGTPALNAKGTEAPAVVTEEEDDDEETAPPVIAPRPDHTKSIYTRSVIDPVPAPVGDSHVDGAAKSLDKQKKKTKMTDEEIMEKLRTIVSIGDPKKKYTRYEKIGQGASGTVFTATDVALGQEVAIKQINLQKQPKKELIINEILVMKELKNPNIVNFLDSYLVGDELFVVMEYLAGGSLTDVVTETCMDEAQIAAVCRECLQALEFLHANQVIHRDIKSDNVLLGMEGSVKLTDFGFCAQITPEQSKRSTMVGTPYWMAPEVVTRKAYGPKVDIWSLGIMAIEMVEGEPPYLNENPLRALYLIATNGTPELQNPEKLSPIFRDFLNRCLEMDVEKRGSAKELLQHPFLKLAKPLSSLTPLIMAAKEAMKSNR
Sequence of AKT3 (Q9Y243 whole entry): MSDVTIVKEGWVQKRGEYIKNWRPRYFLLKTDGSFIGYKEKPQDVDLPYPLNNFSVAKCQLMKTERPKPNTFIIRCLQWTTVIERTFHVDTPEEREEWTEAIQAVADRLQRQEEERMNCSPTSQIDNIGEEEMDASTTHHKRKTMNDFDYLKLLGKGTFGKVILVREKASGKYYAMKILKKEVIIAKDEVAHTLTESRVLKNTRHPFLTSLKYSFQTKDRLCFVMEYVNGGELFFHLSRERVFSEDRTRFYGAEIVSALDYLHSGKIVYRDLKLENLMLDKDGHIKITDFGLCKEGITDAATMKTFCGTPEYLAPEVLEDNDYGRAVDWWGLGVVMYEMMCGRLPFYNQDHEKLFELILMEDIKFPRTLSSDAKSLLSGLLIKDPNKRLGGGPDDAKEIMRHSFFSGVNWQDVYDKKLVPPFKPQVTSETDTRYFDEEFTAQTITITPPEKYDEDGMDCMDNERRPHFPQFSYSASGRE
Sequence of MYLK (Q15746 whole entry): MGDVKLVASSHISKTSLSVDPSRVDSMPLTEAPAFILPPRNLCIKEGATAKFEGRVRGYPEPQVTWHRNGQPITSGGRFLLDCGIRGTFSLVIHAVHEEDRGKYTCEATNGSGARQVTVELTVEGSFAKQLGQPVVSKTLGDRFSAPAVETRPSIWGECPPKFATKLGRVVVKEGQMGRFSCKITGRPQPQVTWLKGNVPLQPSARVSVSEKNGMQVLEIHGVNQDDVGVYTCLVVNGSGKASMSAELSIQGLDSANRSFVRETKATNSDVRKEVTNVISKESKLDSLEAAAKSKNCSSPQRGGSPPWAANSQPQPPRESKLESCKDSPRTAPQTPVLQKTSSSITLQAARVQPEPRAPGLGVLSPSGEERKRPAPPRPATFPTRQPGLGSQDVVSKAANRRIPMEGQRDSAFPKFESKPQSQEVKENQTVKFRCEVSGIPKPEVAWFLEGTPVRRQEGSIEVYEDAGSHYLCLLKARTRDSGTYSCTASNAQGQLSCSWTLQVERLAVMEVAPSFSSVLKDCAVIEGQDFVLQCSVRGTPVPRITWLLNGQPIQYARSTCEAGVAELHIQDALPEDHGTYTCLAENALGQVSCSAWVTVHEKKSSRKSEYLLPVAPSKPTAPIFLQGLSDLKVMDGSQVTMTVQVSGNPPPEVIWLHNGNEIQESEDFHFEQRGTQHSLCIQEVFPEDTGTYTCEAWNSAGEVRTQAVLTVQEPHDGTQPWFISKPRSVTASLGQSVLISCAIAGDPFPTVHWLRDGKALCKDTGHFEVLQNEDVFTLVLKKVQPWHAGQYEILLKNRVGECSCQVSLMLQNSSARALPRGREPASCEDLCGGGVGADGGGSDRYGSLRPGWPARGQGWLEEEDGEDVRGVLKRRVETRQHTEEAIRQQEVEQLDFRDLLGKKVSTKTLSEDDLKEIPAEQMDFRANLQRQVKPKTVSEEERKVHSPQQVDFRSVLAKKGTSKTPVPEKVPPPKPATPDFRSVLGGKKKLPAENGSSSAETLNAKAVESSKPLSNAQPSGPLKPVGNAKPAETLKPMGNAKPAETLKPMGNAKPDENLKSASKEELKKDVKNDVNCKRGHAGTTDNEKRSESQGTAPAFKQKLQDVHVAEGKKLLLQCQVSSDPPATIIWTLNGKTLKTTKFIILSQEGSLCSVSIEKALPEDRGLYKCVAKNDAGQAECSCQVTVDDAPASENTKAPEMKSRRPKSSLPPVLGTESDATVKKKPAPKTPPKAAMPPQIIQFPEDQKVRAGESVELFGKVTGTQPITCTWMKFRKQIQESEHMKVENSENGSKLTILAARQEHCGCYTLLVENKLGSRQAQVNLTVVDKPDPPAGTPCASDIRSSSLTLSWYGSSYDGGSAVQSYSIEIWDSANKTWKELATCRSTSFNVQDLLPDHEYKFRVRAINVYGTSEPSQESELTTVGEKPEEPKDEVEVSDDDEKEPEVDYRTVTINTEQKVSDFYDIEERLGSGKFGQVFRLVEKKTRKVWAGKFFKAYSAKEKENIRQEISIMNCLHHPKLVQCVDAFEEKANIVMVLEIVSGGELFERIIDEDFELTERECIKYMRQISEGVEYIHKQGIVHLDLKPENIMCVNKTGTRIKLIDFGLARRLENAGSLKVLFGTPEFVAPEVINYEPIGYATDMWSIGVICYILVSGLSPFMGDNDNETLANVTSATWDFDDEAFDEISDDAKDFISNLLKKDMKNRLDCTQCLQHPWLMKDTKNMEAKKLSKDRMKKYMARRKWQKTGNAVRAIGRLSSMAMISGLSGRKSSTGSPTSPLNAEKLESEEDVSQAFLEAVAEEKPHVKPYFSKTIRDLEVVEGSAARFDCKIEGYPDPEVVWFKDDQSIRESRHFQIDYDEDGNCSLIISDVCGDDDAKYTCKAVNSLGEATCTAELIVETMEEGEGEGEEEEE
Sequence of NEK6 (Q9HC98 whole entry): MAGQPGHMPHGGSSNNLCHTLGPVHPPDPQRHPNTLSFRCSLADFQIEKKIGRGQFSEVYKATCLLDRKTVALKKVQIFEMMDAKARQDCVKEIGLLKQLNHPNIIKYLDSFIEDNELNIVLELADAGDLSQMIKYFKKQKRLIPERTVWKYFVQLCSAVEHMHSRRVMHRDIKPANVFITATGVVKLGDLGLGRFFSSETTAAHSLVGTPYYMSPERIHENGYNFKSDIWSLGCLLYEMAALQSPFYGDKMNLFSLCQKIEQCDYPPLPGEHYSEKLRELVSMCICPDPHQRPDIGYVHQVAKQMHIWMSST
Sequence of p38-alpha (Q16539 whole entry): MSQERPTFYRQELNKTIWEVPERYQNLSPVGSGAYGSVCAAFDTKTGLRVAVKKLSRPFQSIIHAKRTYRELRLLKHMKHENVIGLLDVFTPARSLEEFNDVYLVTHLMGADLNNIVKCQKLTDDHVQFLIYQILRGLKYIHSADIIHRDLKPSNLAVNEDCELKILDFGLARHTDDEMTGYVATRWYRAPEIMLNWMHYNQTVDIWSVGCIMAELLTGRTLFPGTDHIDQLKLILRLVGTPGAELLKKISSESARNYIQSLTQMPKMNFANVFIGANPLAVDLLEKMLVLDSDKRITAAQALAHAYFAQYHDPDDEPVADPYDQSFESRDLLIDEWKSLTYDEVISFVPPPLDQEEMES
Sequence of PRKX (P51817 whole entry): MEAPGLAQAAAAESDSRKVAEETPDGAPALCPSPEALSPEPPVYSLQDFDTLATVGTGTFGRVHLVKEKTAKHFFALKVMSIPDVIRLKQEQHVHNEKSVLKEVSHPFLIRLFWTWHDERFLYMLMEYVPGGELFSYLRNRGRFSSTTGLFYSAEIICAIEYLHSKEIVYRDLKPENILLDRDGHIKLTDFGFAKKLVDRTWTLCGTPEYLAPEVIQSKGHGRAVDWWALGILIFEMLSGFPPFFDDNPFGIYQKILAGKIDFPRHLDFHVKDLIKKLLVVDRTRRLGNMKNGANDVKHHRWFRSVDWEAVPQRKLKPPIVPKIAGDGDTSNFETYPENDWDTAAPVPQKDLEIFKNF
Sequence of CSF1-R (P07333 20-972): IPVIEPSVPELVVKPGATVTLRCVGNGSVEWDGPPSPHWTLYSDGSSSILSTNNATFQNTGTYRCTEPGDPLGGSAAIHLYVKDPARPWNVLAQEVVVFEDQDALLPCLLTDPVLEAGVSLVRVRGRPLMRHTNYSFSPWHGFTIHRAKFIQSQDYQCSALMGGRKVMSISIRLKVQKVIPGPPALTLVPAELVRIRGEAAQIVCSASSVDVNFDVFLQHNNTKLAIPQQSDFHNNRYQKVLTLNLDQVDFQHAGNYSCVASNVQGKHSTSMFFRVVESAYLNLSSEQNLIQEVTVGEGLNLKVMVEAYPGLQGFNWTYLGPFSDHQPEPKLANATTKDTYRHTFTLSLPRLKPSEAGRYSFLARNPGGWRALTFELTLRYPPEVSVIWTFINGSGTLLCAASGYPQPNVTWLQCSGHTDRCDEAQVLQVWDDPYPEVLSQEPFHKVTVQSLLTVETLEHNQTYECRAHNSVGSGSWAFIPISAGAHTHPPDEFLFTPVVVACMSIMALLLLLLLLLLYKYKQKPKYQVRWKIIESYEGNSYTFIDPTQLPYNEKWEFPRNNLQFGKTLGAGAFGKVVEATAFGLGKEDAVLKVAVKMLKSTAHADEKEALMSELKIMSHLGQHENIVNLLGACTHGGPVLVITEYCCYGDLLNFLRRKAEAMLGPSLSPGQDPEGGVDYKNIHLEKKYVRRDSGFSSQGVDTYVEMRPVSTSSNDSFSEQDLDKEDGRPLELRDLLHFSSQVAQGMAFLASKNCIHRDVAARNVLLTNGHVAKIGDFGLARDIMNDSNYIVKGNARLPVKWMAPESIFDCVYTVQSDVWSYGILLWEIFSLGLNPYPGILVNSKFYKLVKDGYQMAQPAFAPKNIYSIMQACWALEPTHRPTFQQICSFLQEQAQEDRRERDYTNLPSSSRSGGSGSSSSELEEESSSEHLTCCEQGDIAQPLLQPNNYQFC

residual activity at 1 µM, Mean (Aurora-B): 104 % of control | residual activity at 1 µM, Mean (PKC-beta2): 108 % of control | residual activity at 1 µM, Mean (PKC-delta): 105 % of control | residual activity at 1 µM, Mean (GRK6): 98 % of control | residual activity at 1 µM, Mean (MYLK): 92 % of control | residual activity at 1 µM, Mean (CDK2/CycE1): 97 % of control | residual activity at 1 µM, Mean (NEK6): 104 % of control | residual activity at 1 µM, Mean (CDK6/CycD1): 95 % of control | residual activity at 1 µM, Mean (ACV-R2B): 97 % of control | residual activity at 1 µM, Mean (AXL): 95 % of control | residual activity at 1 µM, Mean (DAPK2): 97 % of control | residual activity at 1 µM, Mean (CDK8/CycC): 18 % of control | residual activity at 1 µM, Mean (AKT3): 104 % of control | residual activity at 1 µM, Mean (LYN): 77 % of control | residual activity at 1 µM, Mean (CAMKK2): 86 % of control | residual activity at 1 µM, Mean (MARK2): 98 % of control | residual activity at 1 µM, Mean (LRRK2): 83 % of control | residual activity at 1 µM, Mean (PHKG1): 91 % of control | residual activity at 1 µM, Mean (RPS6KA6): 98 % of control | residual activity at 1 µM, Mean (SRC): 95 % of control | residual activity at 1 µM, Mean (PKC-iota): 102 % of control | residual activity at 1 µM, Mean (GSK3-alpha): 81 % of control | residual activity at 1 µM, Mean (PKC-alpha): 111 % of control | residual activity at 1 µM, Mean (CSF1-R): 106 % of control | residual activity at 1 µM, Mean (PKC-nu): 87 % of control | residual activity at 1 µM, Mean (MEKK3): 97 % of control | residual activity at 1 µM, Mean (VRK1): 89 % of control | residual activity at 1 µM, Mean (RON): 96 % of control | residual activity at 1 µM, Mean (p38-alpha): 86 % of control | residual activity at 1 µM, Mean (BTK): 96 % of control | residual activity at 1 µM, Mean (NEK1): 101 % of control | residual activity at 1 µM, Mean (PRKX): 80 % of control | residual activity at 1 µM, Mean (IRAK1): 95 % of control | residual activity at 1 µM, Mean (FER): 93 % of control | residual activity at 1 µM, Mean (PDGFR-alpha): 102 % of control | residual activity at 1 µM, Mean (TLK2): 108 % of control | residual activity at 1 µM, Mean (PAK2): 105 % of control | residual activity at 1 µM, Mean (MERTK): 91 % of control | residual activity at 1 µM, Mean (MKK6 (S207D/T211D)): 100 % of control
Compound: COc1ccc2c3ccnc(Cl)c3n(CC#N)c2c1 [AnnH75]

Source: publication PMC4508061, “Selectivity Profiling and Biological Activity of Novel β-Carbolines as Potent and Selective DYRK1 Kinase Inhibitors” (PLoS ONE, 2015)
